# US7888363B2, “Viral polymerase inhibitors” (Boehringer Ingelheim International GmbH, priority 2003, dated 2011)
# Target: hepatitis C virus RNA dependant polymerase (NS5B) (Hepatitis C virus genotype 1b, UniProt P26663)
# Test: Inhibition of NS5B RNA dependent RNA polymerase activity
# Format: biochemical
# Conditions: Table 1; HCV NS5B polymerase
# Description: A suitable assay is described in the examples.
# Inhibition of NS5B RNA Dependent RNA Polymerase Activity
# The compounds of the invention were tested for inhibitory activity against the hepatitis C virus RNA dependant polymerase (NS5B), according to protocol described in WO 03/010141
# hepatitis C virus RNA dependant polymerase (NS5B), sequence (P26663 2420-3010): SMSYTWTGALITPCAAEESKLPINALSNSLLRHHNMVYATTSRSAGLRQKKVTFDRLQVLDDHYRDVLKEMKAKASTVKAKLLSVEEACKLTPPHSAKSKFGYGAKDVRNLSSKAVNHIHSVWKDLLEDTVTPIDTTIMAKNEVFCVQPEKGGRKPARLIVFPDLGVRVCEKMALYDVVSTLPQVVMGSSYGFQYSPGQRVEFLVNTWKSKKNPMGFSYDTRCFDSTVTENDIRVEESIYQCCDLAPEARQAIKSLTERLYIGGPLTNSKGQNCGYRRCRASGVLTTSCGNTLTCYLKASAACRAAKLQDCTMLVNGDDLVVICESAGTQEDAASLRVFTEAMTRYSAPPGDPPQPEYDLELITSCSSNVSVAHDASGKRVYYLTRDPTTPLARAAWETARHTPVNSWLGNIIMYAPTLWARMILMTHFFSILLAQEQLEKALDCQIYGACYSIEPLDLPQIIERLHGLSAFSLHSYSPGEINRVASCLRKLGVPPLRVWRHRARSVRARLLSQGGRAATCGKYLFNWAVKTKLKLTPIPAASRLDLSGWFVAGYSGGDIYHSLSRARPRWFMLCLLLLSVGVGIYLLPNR
row,SMILES,IC50 [nM]
1,O=C(O)c1ccc2c(C3CCCCC3)c(-c3ccco3)n(CC(=O)N3CCOCC3)c2c1 [Example 1030],< 200
2,O=C(O)c1ccc2c(C3CCCCC3)c(-c3ccoc3)n(CC(=O)N3CCCC(C(=O)O)C3)c2c1 (centres unmarked) [Example 1099],< 200
3,CN(C)CC(=O)NNC(=O)Cn1c(-c2ccoc2)c(C2CCCCC2)c2ccc(C(=O)O)cc21 [Example 1132],< 200
4,CC(C)CN(C)C(=O)Cn1c(-c2ccoc2)c(C2CCCCC2)c2ccc(C(=O)O)cc21 [Example 1006],200 to 1000
5,O=C(O)c1ccc2c(C3CCCCC3)c(-c3ccccn3)n(CC(=O)N3CCCC3)c2c1 [Example 1084],200 to 1000
6,NS(=O)(=O)c1ccc(CNC(=O)Cn2c(-c3ccoc3)c(C3CCCCC3)c3ccc(C(=O)O)cc32)cc1 [Example 1069],200 to 1000
7,NC(=O)[C@@H]1CCCN1C(=O)Cn1c(-c2ccoc2)c(C2CCCCC2)c2ccc(C(=O)O)cc21 [Example 1057],< 200
8,O=C(Cn1c(-c2ccoc2)c(C2CCCCC2)c2ccc(C(=O)O)cc21)NNC(=O)c1ccncc1 [Example 1059],< 200
9,O=C(O)c1ccc2c(C3CCCCC3)c(-c3ccoc3)n(CC(=O)N3CCCC3)c2c1 [Example 1094],< 200
10,O=C(O)c1ccc2c(C3CCCCC3)c(-c3csc4ccccc34)n(CC(=O)N3CCC(N4CCCC4)CC3)c2c1 [Example 1048],200 to 1000
11,O=C(Cn1c(-c2ccoc2)c(C2CCCCC2)c2ccc(C(=O)O)cc21)NCC1CCCCC1 [Example 1089],200 to 1000
12,O=C(Cn1c(-c2ccoc2)c(C2CCCCC2)c2ccc(C(=O)O)cc21)NC1CCCCC1 [Example 1088],200 to 1000
13,CN(C)C(=O)CN1CCN(C(=O)Cn2c(-c3ccoc3)c(C3CCCCC3)c3ccc(C(=O)O)cc32)CC1 [Example 1130],< 200
14,O=C(O)c1ccc2c(C3CCCCC3)c(-c3ccccc3)n(CC(=O)N3CCOCC3)c2c1 [Example 1023],< 200
15,COCCN1CCN(C(=O)Cn2c(-c3ccoc3)c(C3CCCCC3)c3ccc(C(=O)O)cc32)CC1 [Example 1126],< 200
16,O=C(O)c1ccc2c(C3CCCCC3)c(-c3ccco3)n(CC(=O)N3CCC(N4CCCC4)CC3)c2c1 [Example 1038],< 200
17,O=C(O)c1ccc2c(C3CCCCC3)c(-c3ccoc3)n(CC(=O)N3CCN(CCO)CC3)c2c1 [Example 1096],< 200
18,CCN(CCN(C)C)C(=O)Cn1c(-c2ccoc2)c(C2CCCCC2)c2ccc(C(=O)O)cc21 [Example 1022],200 to 1000
19,CN(C)C(=O)Cn1c(-c2ccoc2)c(C2CCCCC2)c2ccc(C(=O)O)cc21 [Example 1111],< 200
20,O=C(O)c1ccc2c(C3CCCCC3)c(-c3ccoc3)n(CC(=O)N3CCN(c4ccccc4)CC3)c2c1 [Example 1095],200 to 1000
21,CCCN(CCOC)C(=O)Cn1c(-c2ccoc2)c(C2CCCCC2)c2ccc(C(=O)O)cc21 [Example 1015],200 to 1000
22,CC(C)(NC(=O)Cn1c(-c2ccccn2)c(C2CCCCC2)c2ccc(C(=O)O)cc21)C(=O)Nc1ccc(/C=C/C(=O)O)cc1 [Example 1083],200 to 1000
23,O=C(Cn1c(-c2ccoc2)c(C2CCCCC2)c2ccc(C(=O)O)cc21)NNC(=O)NC[C@H]1CC[C@H](C(=O)O)CC1 [Example 1076],< 200
24,O=C(O)/C=C/c1ccc(NC(=O)C2(NC(=O)Cn3c(-c4ccoc4)c(C4CCCCC4)c4ccc(C(=O)O)cc43)CCNCC2)cc1 [Example 1080],< 200
25,COCCN(C)C(=O)Cn1c(-c2ccoc2)c(C2CCCCC2)c2ccc(C(=O)O)cc21 [Example 1124],200 to 1000
26,CC(C)NC(=O)Cn1c(-c2ccoc2)c(C2CCCCC2)c2ccc(C(=O)O)cc21 [Example 1106],200 to 1000
27,O=C(O)c1ccc2c(C3CCCCC3)c(-c3ccoc3)n(CC(=O)N3CCC(N4CCCC4)CC3)c2c1 [Example 1116],< 200
28,CN(C)C(=O)Cn1c(-c2ccsc2)c(C2CCCCC2)c2ccc(C(=O)O)cc21 [Example 1028],< 200

# Same assay, conditions: Table 2; HCV NS5B polymerase
row,SMILES,IC50 [nM]
1,O=C(NS(=O)(=O)Cc1ccccc1)c1ccc2c(C3CCCCC3)c(-c3ccoc3)n(CC(=O)N3CCOCC3)c2c1 [Example 2003],< 200
2,O=C(NS(=O)(=O)c1ccccc1Cl)c1ccc2c(C3CCCCC3)c(-c3ccoc3)n(CC(=O)N3CCOCC3)c2c1 [Example 2012],< 200
3,O=C(NS(=O)(=O)c1ccc(OC(F)(F)F)cc1)c1ccc2c(C3CCCCC3)c(-c3ccoc3)n(CC(=O)N3CCOCC3)c2c1 [Example 2013],< 200

# Same assay, conditions: Table 3; HCV NS5B polymerase
row,SMILES,IC50 [nM]
1,O=C(O)/C=C/c1ccc(NC(=O)C2(NC(=O)c3ccc4c(C5CCCCC5)c(-c5ccccn5)n(CC(=O)N5CCCCC5)c4c3)CCC2)cc1 [Example 3009],< 200
2,CC(C)(NC(=O)Cn1c(-c2ccoc2)c(C2CCCCC2)c2ccc(C(=O)NC(C)(C)C(=O)Nc3ccc(/C=C/C(=O)O)cc3)cc21)C(=O)Nc1ccc(/C=C/C(=O)O)cc1 [Example 3005],< 200

# Same assay, conditions: Table 4; class ranges
row,SMILES,IC50 [nM]
1,CN(C)C(=O)Cn1c(-c2ccoc2)c(C2CCCCC2)c2ccc(C(=O)NCc3ccccn3)cc21 [Example 4053],200 to 1000
2,CN1CCN(C(=O)Cn2c(-c3ccoc3)c(C3CCCCC3)c3ccc(C(=O)NC4(CO)CCCC4)cc32)CC1 [Example 4027],200 to 1000
3,CN1CCN(C(=O)Cn2c(-c3ccoc3)c(C3CCCCC3)c3ccc(C(=O)NCC(O)c4ccccc4)cc32)CC1 (centres unmarked) [Example 4023],200 to 1000
4,CN(C)C(=O)Cn1c(-c2ccoc2)c(C2CCCCC2)c2ccc(C(=O)NCCc3ccncc3)cc21 [Example 4057],200 to 1000
5,CNC(=O)C(C)(C)NC(=O)c1ccc2c(C3CCCCC3)c(-c3ccoc3)n(CC(=O)N3CCC(N4CCCC4)CC3)c2c1 [Example 4084],< 200
6,C[C@@H](NC(=O)c1ccc2c(C3CCCCC3)c(-c3ccoc3)n(CC(=O)N(C)C)c2c1)c1ccccc1 [Example 4058],< 200
7,CNC(=O)C1(NC(=O)c2ccc3c(C4CCCCC4)c(-c4ccoc4)n(CC(=O)N4CCOCC4)c3c2)CCC1 [Example 4091],200 to 1000
8,CS(=O)(=O)NC(=O)c1ccc2c(C3CCCCC3)c(-c3ccoc3)n(CC(=O)N3CCC(N4CCCC4)CC3)c2c1 [Example 4109],< 200
9,COc1ccc(CNC(=O)c2ccc3c(C4CCCCC4)c(-c4ccccn4)n(CC(=O)N4CCN(C)CC4)c3c2)cc1OC [Example 4002],200 to 1000
10,COC(=O)C(C)(C)NC(=O)c1ccc2c(C3CCCCC3)c(-c3ccoc3)n(CC(=O)N3CCOCC3)c2c1 [Example 4075],200 to 1000
11,COc1cc(CNC(=O)c2ccc3c(C4CCCCC4)c(-c4ccoc4)n(CC(=O)N4CCN(C)CC4)c3c2)ccc1O [Example 4030],< 200
12,CCOC(=O)c1nc(C2(NC(=O)c3ccc4c(C5CCCCC5)c(-c5ccoc5)n(CC(=O)N5CCC(N6CCCC6)CC5)c4c3)CCC2)cs1 [Example 4108],200 to 1000
13,CC(=O)Nc1nc(C2(NC(=O)c3ccc4c(C5CCCCC5)c(-c5ccoc5)n(CC(=O)N5CCC(N6CCCC6)CC5)c4c3)CCC2)cs1 [Example 4102],< 200
14,COC(=O)C1(NC(=O)c2ccc3c(C4CCCCC4)c(-c4ccoc4)n(CC(=O)N4CCOCC4)c3c2)CCCCC1 [Example 4076],200 to 1000
15,Cc1nc(C2(NC(=O)c3ccc4c(C5CCCCC5)c(-c5ccoc5)n(CC(=O)N5CCC(N6CCCC6)CC5)c4c3)CCC2)cs1 [Example 4099],< 200
16,CNC(=O)C1(NC(=O)c2ccc3c(C4CCCCC4)c(-c4ccoc4)n(CC(=O)N4CCC(N5CCCC5)CC4)c3c2)CCC1 [Example 4089],< 200
17,O=C(NCCc1ccccc1)c1ccc2c(C3CCCCC3)c(-c3ccoc3)n(CC(=O)N3CCOCC3)c2c1 [Example 4048],1000 to 10000

# Same assay, conditions: Table 5; HCV NS5B polymerase
row,SMILES,IC50 [nM]
1,C/C=C/Cn1c(-c2ccoc2)c(C2CCCCC2)c2ccc(C(=O)O)cc21 [Example 5005],1000 to 10000

# Same assay, conditions: Table 7; class ranges
row,SMILES,IC50 [nM]
1,O=C(NCc1cccnc1)c1ccc2c(c1)c(C1CCCCC1)c(-c1ccoc1)n2CC(=O)N1CCC(N2CCCC2)CC1 [Example 7021],1000 to 10000
2,COc1cc2c(C3CCCCC3)c(-c3ccoc3)n(CC(=O)N3CCOCC3)c2cc1C(=O)O [Example 7002],200 to 1000
3,CC(=O)NCCNC(=O)c1ccc2c(c1)c(C1CCCCC1)c(-c1ccoc1)n2CC(=O)N1CCC(N2CCCC2)CC1 [Example 7031],1000 to 10000
4,NC(=O)C1CCCN(C(=O)c2ccc3c(c2)c(C2CCCCC2)c(-c2ccoc2)n3CC(=O)N2CCC(N3CCCC3)CC2)C1 (centres unmarked) [Example 7017],1000 to 10000
5,O=C(O)c1ccc(CNC(=O)c2ccc3c(c2)c(C2CCCCC2)c(-c2ccoc2)n3CC(=O)N2CCC(N3CCCC3)CC2)cc1 [Example 7045],1000 to 10000
6,O=C(O)c1cc2c(cc1O)c(C1CCCCC1)c(-c1ccoc1)n2CC(=O)N1CCOCC1 [Example 7008],1000 to 10000
7,O=C(NCc1c(F)cccc1Cl)c1ccc2c(c1)c(C1CCCCC1)c(-c1ccoc1)n2CC(=O)N1CCC(N2CCCC2)CC1 [Example 7036],1000 to 10000
8,COC(=O)C(Cc1ccc(Cl)cc1)NC(=O)c1ccc2c(c1)c(C1CCCCC1)c(-c1ccoc1)n2CC(=O)N1CCC(N2CCCC2)CC1 (centres unmarked) [Example 7060],1000 to 10000
9,O=C(NCc1ccccc1)c1ccc2c(c1)c(C1CCCCC1)c(-c1ccoc1)n2CC(=O)N1CCC(N2CCCC2)CC1 [Example 7027],1000 to 10000
10,O=C(O)Cc1cccc(NC(=O)c2ccc3c(c2)c(C2CCCCC2)c(-c2ccoc2)n3CC(=O)N2CCC(N3CCCC3)CC2)c1 [Example 7055],1000 to 10000
11,O=C(O)/C=C/c1ccc(NC(=O)C2(NC(=O)c3ccc4c(c3)c(C3CCCCC3)c(-c3ccoc3)n4CC(=O)N3CCC(N4CCCC4)CC3)CCC2)cc1 [Example 7062],1000 to 10000
12,CC(=O)NC1CCN(C(=O)c2ccc3c(c2)c(C2CCCCC2)c(-c2ccoc2)n3CC(=O)N2CCC(N3CCCC3)CC2)C1 (centres unmarked) [Example 7039],1000 to 10000
13,NC(=O)c1ccc2c(c1)c(C1CCCCC1)c(-c1ccoc1)n2CC(=O)N1CCC(N2CCCC2)CC1 [Example 7058],1000 to 10000
14,O=C(N[C@H]1CC[C@H](O)CC1)c1ccc2c(c1)c(C1CCCCC1)c(-c1ccoc1)n2CC(=O)N1CCC(N2CCCC2)CC1 [Example 7041],1000 to 10000
